# Results from patent publication US8589175B2, “Optimization and individualization of medication selection and dosing” (Children's Hospital Medical Center, priority 2005, dated 2013).
# Tested on: CYP2C19
# Assay: dosing recommendation per CYP2C19 metabolizer subgroup as percentage of usual population dose (Equations 4-6)
# Settings: CYP2C19
# From the text: Assuming the goal is to maintain the same AUC for all three subpopulations of patients, the following subpopulation dosing relationships hold: DPM=DEM*(AUCEM/AUCPM) OR DPM=DEM*R if R=(AUCEM/AUCPM) (Equation 2) DIM=DEM*(AUCEM/AUCIM) OR DIM=DEM*S if S=(AUCEM/AUCIM) (Equation 3)
# By substituting equations 2 and 3 into equation 1, and then rearranging the equation to solve for the percent dose adjustment needed for each subgroup relative to the population dose: DEM(%)=100/(fEM+fIM*S+fPM*R) (Equation 4) DPM(%)=R*DEM (Equation 5) DIM(%)=S*DEM (Equation 6) Equations 4, 5, and 6 show how the dosing for the more homogeneous subgroups is determined and how the dosing results are expressed as a fraction of the clinician's usual heterogeneous whole group dosages. Determining “Minimal Dose Adjustment Units”
# Example: The approach in the previous section leads to individualized initial drug dose recommendations for each of the 3 subgroups (extensive, poor and intermediate metabolizers). Each subgroup represents a specific number of functional alleles for the specific DME (extensive metabolizers have 2 functional, intermediate metabolizers have 1 functional and poor metabolizers have 0 functional). The resultant dosing recommendations are expressed as percentages of the clinician's usual starting dose. It is possible to investigate the effect of increasing numbers of non-functional alleles using these new dosing recommendations. For example, if DRX % is the dosing recommendation for subgroup X expressed as a percentage of the clinician's usual starting dose then the following are true: Effect of […] 1 non-functional allele=(DREM %−DRIM %)/DREM % Effect of 2 non-functional allele=(DREM %−DRPM %)/DREM % Below is a spreadsheet (Table 3) that examines this for CYP2D6, CYP2C19 and CYP2C9. […] 2C9 has 2 MDA units per non-functional allele.
SMILES,1 al (effect of 1 non-functional allele),2 al (effect of 2 non-functional alleles)
CN(C)CCC=C1c2ccccc2CCc2ccccc21 [amitryptiline],0.26,0.51

# Same assay, conditions: CYP2C19, head prints UM; percent of usual dose
row,SMILES,UM (%) dosing recommendation [%]
1,CN(C)CCC=C1c2ccccc2CCc2ccccc21 [amitryptiline],109

# Same assay, conditions: CYP2C19; ratio of the two effects
row,SMILES,2 al/1 al
1,CN(C)CCC=C1c2ccccc2CCc2ccccc21 [amitryptiline],2.00

# Same assay, conditions: CYP2C19 intermediate metabolizers; percent of usual dose
row,SMILES,IM (%) dosing recommendation [%]
1,CN(C)CCC=C1c2ccccc2CCc2ccccc21 [amitryptiline],81

# Same assay, conditions: CYP2C19 poor metabolizers; percent of usual dose
row,SMILES,PM (%) dosing recommendation [%]
1,CN(C)CCC=C1c2ccccc2CCc2ccccc21 [amitryptiline],53

# Same assay, conditions: human
SMILES,1 al (effect of 1 non-functional allele),2 al (effect of 2 non-functional alleles),2 al/1 al,IM (%) dosing recommendation [%],PM (%) dosing recommendation [%],UM (%) dosing recommendation [%]
CN[C@H]1CC[C@@H](c2ccc(Cl)c(Cl)c2)c2ccccc21 [sertraline],0.14,0.29,2.00,90,75,105
CN(C)CCCN1c2ccccc2CCc2ccc(Cl)cc21 [clomipramine],0.28,0.44,–,79,–,110

# Tested on: CYP2D6
# Assay: not given
# Settings: not given
SMILES,1 al (effect of 1 non-functional allele),2 al (effect of 2 non-functional alleles),2 al/1 al,EM (%) dosing recommendation [%],IM (%) dosing recommendation [%],PM (%) dosing recommendation [%],UM (%) dosing recommendation [%]
Cl.Cl.OCCN1CCN(CCC=C2c3ccccc3Sc3ccc(C(F)(F)F)cc32)CC1 (mixture of isomers) [flupentixol],0.26,0.36,1.40,116,86,74,146

# Same assay, conditions: CYP2D6; (DREM%-DRIM%)/DREM%
row,SMILES,1 al (effect of 1 non-functional allele)
1,O=C1CCc2ccc(OCCCCN3CCN(c4cccc(Cl)c4Cl)CC3)cc2N1 [aripiprazole],0.19
2,COc1ccc(C(CN(C)C)C2(O)CCCCC2)cc1 (stereo not drawn) [venlafaxine],0.21
3,Fc1ccc([C@@H]2CCNC[C@H]2COc2ccc3c(c2)OCO3)cc1 [paroxetine],0.21
4,OCCN1CCN(CCCN2c3ccccc3Sc3ccc(Cl)cc32)CC1 [perphenazine],0.38

# Same assay, conditions: CYP2D6; (DREM%-DRPM%)/DREM%
row,SMILES,2 al (effect of 2 non-functional alleles)
1,O=C1CCc2ccc(OCCCCN3CCN(c4cccc(Cl)c4Cl)CC3)cc2N1 [aripiprazole],0.38
2,COc1ccc(C(CN(C)C)C2(O)CCCCC2)cc1 (stereo not drawn) [venlafaxine],0.38
3,Fc1ccc([C@@H]2CCNC[C@H]2COc2ccc3c(c2)OCO3)cc1 [paroxetine],0.42
4,OCCN1CCN(CCCN2c3ccccc3Sc3ccc(Cl)cc32)CC1 [perphenazine],0.76

# Same assay, conditions: CYP2D6; ratio of the two effects
row,SMILES,2 al/1 al
1,O=C1CCc2ccc(OCCCCN3CCN(c4cccc(Cl)c4Cl)CC3)cc2N1 [aripiprazole],2.05
2,COc1ccc(C(CN(C)C)C2(O)CCCCC2)cc1 (stereo not drawn) [venlafaxine],1.78
3,Fc1ccc([C@@H]2CCNC[C@H]2COc2ccc3c(c2)OCO3)cc1 [paroxetine],2.00
4,OCCN1CCN(CCCN2c3ccccc3Sc3ccc(Cl)cc32)CC1 [perphenazine],2.00

# Same assay, conditions: CYP2D6 extensive metabolizers; percent of usual dose
row,SMILES,EM (%) dosing recommendation [%]
1,O=C1CCc2ccc(OCCCCN3CCN(c4cccc(Cl)c4Cl)CC3)cc2N1 [aripiprazole],113
2,COc1ccc(C(CN(C)C)C2(O)CCCCC2)cc1 (stereo not drawn) [venlafaxine],109
3,Fc1ccc([C@@H]2CCNC[C@H]2COc2ccc3c(c2)OCO3)cc1 [paroxetine],114
4,OCCN1CCN(CCCN2c3ccccc3Sc3ccc(Cl)cc32)CC1 [perphenazine],129

# Same assay, conditions: CYP2D6 intermediate metabolizers; percent of usual dose
row,SMILES,IM (%) dosing recommendation [%]
1,O=C1CCc2ccc(OCCCCN3CCN(c4cccc(Cl)c4Cl)CC3)cc2N1 [aripiprazole],92
2,COc1ccc(C(CN(C)C)C2(O)CCCCC2)cc1 (stereo not drawn) [venlafaxine],86
3,Fc1ccc([C@@H]2CCNC[C@H]2COc2ccc3c(c2)OCO3)cc1 [paroxetine],90
4,OCCN1CCN(CCCN2c3ccccc3Sc3ccc(Cl)cc32)CC1 [perphenazine],80

# Same assay, conditions: CYP2D6 poor metabolizers; percent of usual dose
row,SMILES,PM (%) dosing recommendation [%]
1,O=C1CCc2ccc(OCCCCN3CCN(c4cccc(Cl)c4Cl)CC3)cc2N1 [aripiprazole],70
2,COc1ccc(C(CN(C)C)C2(O)CCCCC2)cc1 (stereo not drawn) [venlafaxine],68
3,Fc1ccc([C@@H]2CCNC[C@H]2COc2ccc3c(c2)OCO3)cc1 [paroxetine],66
4,OCCN1CCN(CCCN2c3ccccc3Sc3ccc(Cl)cc32)CC1 [perphenazine],31

# Same assay, conditions: CYP2D6 ultrarapid metabolizers; percent of usual dose
row,SMILES,UM (%) dosing recommendation [%]
1,O=C1CCc2ccc(OCCCCN3CCN(c4cccc(Cl)c4Cl)CC3)cc2N1 [aripiprazole],134
2,COc1ccc(C(CN(C)C)C2(O)CCCCC2)cc1 (stereo not drawn) [venlafaxine],130
3,Fc1ccc([C@@H]2CCNC[C@H]2COc2ccc3c(c2)OCO3)cc1 [paroxetine],138
4,OCCN1CCN(CCCN2c3ccccc3Sc3ccc(Cl)cc32)CC1 [perphenazine],178

# Same assay, conditions: human
SMILES,1 al (effect of 1 non-functional allele),2 al (effect of 2 non-functional alleles),EM (%) dosing recommendation [%],IM (%) dosing recommendation [%],PM (%) dosing recommendation [%],UM (%) dosing recommendation [%],2 al/1 al
CN[C@H]1CC[C@@H](c2ccc(Cl)c(Cl)c2)c2ccccc21 [sertraline],0.00,0.01,100,100,99,100,–
CN(C)CCC=C1c2ccccc2CCc2ccccc21 [amitryptiline],0.17,0.34,111,92,73,130,2.00
CCc1nn(CCCN2CCN(c3cccc(Cl)c3)CC2)c(=O)n1CCOc1ccccc1 [nefazodone],0.08,0.14,105,97,90,113,1.88
CN1CCN2c3ncccc3Cc3ccccc3C2C1 (stereo not drawn) [mirtazapine],−0.02,−0.03,99,101,102,97,–
OCCN1CCN(CC/C=C2/c3ccccc3Sc3ccc(Cl)cc32)CC1 [zuclopenthixol],0.22,0.46,116,90,63,142,2.04
COc1ccc2c(c1)N(C[C@H](C)CN(C)C)c1ccccc1S2 [levomepromazine],0.00,0.00,100,100,100,100,–
CNCCC=C1c2ccccc2CCc2ccccc21 [nortriptyline],0.19,0.55,119,96,53,152,2.87
O=C(CCCN1CCC(O)(c2ccc(Cl)cc2)CC1)c1ccc(F)cc1 [haloperidol],0.09,0.29,107,97,76,126,3.10
CNCCCN1c2ccccc2CCc2ccccc21 [desipramine],0.34,0.66,125,83,42,167,1.98
CN1CCN(CCCN2c3ccccc3Sc3ccccc32)CC1 [perazine],0.17,0.22,110,91,86,117,1.26
O=c1n(CCCN2CCN(c3cccc(Cl)c3)CC2)nc2ccccn12 [trazadone],0.15,0.31,110,93,76,127,2.00
Cc1nc2n(c(=O)c1CCN1CCC(c3noc4cc(F)ccc34)CC1)CCCC2 [risperidone],0.09,–,–,–,–,–,–
O=c1[nH]c2ccccc2n1C1CCN(CCCC(c2ccc(F)cc2)c2ccc(F)cc2)CC1 [pimozide],0.03,0.07,102,99,95,105,–
